Where two headings read alike, the source gives them in different places. Values belong to the substance of their own block, whether it stands above or below them. No end group written: not given here.
What was measured:
[1] = target: nLuc-GLP-2R (UniProt O95838)
[2] = target: nLuc-GLP-2R (UniProt O95838); test: FRET or BRET
[3] = target: T1, GLP-2R (Homo sapiens, UniProt O95838); test: GLP-2R activation: cAMP production, GloSensor HEK293 cells
T1 sequence (O95838 1-553): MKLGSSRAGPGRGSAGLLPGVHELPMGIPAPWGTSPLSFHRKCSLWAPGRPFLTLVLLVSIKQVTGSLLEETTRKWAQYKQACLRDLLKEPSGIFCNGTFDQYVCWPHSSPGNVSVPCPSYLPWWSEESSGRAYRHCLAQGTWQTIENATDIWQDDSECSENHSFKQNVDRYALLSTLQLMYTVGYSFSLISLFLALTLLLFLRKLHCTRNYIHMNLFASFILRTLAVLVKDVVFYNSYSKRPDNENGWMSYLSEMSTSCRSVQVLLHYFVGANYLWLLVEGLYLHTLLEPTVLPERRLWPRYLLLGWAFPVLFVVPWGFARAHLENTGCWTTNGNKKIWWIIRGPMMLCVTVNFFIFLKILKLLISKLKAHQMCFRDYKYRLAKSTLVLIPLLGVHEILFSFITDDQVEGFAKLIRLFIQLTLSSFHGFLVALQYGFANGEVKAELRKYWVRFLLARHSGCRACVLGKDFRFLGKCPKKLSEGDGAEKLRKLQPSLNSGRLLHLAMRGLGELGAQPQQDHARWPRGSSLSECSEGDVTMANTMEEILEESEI

[4] = target: T2, nLuc-GLP-2R (Homo sapiens, UniProt O95838); test: nLuc-GLP-2R competition binding
T2 sequence (O95838 1-553): T1 sequence (O95838 1-553)

[5] = target: GLP-1R (Homo sapiens, UniProt P43220); test: GLP-1R activation: cAMP production, GloSensor HEK293 cells; format: cell-based
[6] = target: nLuc-GLP-1R (Homo sapiens, UniProt P43220); test: nLuc-GLP-1R competition binding
[7] = target: nLuc-GLP-2R (UniProt O95838); remark: listed apart in the source

GLP-1R, sequence (P43220 24-463): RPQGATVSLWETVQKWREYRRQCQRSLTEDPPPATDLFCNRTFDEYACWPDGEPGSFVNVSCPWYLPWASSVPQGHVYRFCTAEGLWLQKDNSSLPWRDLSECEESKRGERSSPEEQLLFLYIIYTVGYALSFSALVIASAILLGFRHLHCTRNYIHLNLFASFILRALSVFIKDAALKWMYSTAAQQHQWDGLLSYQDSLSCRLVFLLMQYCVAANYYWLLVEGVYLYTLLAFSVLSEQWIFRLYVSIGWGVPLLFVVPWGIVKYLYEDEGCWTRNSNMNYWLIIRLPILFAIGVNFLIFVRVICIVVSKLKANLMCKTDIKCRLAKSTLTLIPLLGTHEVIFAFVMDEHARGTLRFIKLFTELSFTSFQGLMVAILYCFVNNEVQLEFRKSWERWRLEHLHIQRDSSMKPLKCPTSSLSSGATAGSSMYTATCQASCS
nLuc-GLP-1R, sequence (P43220 24-463): as above

GLP-2R cAMP Production, % Max (normalized to GLP-2) [1]: 99%
GLP-2R cAMP Production, EC50 (native GLP-2R) [1]: 0.086 nM
IC50 [2]: 25 nM
Substance: GLP-2 (peptide)

effect of altering the C-terminus to a primary amide on GLP-2R activation ([3]; natural sequence, compared with GLP-2, Figure S1): no effect on GLP-2R activation
Substance: GLP-2-NH2: C-terminal amide analogue of the hormone GLP-2

lower affinity for nLuc-GLP-2R relative to GLP-2 ([4]; competition BRET, Figure S2): ~ 10 fold
Emax ([3]; HEK293, read-out: GLP-2R cAMP Production % Max): 98 ± 1%
GLP-1R cAMP Production % Max ([5]; maximal response normalized relative to GLE, ≥4 independent experiments, ± S.E.M., NR = No Response): 95 ± 2%
Substance: HGEGTFSSELATILDALAARDFIAWLIATKITDKKKKKK-NH2 (C-terminus assumed) [GLE, glepaglutide]

IC50 [4]: 170 nM
EC50 [3]: 0.44 nM
EC50 [5]: 5.1 nM
IC50 [6]: 290 nM
Substance: HGEGTFSSELATILDALAARDFIAWLIATKITDKKKKKK-NH2 [GLE, glepaglutide]

GLP-2R cAMP Production, EC50 (native GLP-2R) [7]: 0.44 nM
Substance: glepaglutide (GLE) (peptide)

Source: article PMC10335629 (Journal of the American Chemical Society, 2023)
